The text below walks through data of ChEMBL document CHEMBL4392854, “Discovery, synthesis, biological evaluation and molecular docking study of (R)-5-methylmellein and its analogs as selective monoamine oxidase A inhibitors” (Bioorg Med Chem, 2019).

Structures are written as SMILES.

In series [1] the target is T1, Amine oxidase [flavin-containing] A (Homo sapiens, UniProt P21397).
T1 sequence (P21397 whole entry): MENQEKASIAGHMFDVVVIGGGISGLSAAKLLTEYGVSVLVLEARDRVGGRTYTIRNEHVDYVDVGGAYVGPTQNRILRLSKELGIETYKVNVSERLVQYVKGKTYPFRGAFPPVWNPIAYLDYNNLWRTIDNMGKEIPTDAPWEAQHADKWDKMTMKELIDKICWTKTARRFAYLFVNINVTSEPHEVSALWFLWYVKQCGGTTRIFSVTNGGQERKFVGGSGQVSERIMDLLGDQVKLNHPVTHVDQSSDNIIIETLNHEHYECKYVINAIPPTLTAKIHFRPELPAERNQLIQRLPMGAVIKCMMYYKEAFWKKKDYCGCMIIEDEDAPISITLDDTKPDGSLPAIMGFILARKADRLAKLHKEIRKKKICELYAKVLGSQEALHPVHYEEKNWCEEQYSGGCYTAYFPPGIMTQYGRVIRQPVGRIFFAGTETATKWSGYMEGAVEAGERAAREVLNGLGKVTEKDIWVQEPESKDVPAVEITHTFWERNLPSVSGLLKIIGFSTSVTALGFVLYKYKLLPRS
Briefly: Inhibition of human recombinant MAOA using kynuramine as substrate incubated for 10 mins by UPLC-ESI-MS/MS analysis.

The target in series [2] is T2, Amine oxidase [flavin-containing] B (Homo sapiens, UniProt P27338).
T2 sequence (P27338 whole entry): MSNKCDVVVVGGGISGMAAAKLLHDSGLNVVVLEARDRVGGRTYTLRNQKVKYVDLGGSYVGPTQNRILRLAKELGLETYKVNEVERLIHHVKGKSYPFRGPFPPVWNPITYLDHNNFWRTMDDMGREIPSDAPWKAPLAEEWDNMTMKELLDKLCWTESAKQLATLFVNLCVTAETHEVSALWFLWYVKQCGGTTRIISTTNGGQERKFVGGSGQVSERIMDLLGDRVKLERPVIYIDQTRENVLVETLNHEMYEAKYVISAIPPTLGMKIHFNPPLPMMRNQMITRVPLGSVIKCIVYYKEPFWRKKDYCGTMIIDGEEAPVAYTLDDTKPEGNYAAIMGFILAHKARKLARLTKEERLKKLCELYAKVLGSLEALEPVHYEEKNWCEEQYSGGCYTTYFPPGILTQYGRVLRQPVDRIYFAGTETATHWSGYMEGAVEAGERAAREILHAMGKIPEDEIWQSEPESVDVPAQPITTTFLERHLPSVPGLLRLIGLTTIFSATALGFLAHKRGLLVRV
The series is described as follows: Inhibition of human recombinant MAOB using kynuramine as substrate incubated for 10 mins by UPLC-ESI-MS/MS analysis.

For a further series, the species on record is Homo sapiens. Briefly: Selectivity index, ratio of IC50 for human recombinant MAOB to IC50 for human recombinant MAOA.
For series [3], the target named is T1, Amine oxidase [flavin-containing] A. Briefly: Inhibition of human recombinant MAOA using kynuramine as substrate incubated for 10 mins by UPLC-ESI-MS/MS analysis based Eadie-Hofstee plot analysis.
The target is the same in series [4]. Briefly: Tight-binding competitive inhibition of human recombinant MAOA using kynuramine as substrate incubated for 10 mins by UPLC-ESI-MS/MS analysis based Lineweaver-Burk plot kinetic analysis.
For series [5] the target is unchanged. The series is described as follows: Inhibition of human recombinant MAOA using kynuramine as substrate incubated for 10 mins by UPLC-ESI-MS/MS analysis based Michaelis-Menten plot kinetic analysis.

As a reminder, the IC50 is the point on the concentration scale where inhibition reaches its midpoint. Take `C[C@H]1Cc2cccc(O)c2C(=O)O1`: the IC50 is 7.5 µM in series [1] and 24 µM in series [2]. Further, the Ratio IC50 in the series listed under Homo sapiens stood at 3.2.
For `COc1ccc(C)c2c1C(=O)O[C@H](C)C2`, the IC50 in series [1] and in series [2] was greater than 50 µM throughout.
For the molecule `Cc1ccc(O)c2c1C[C@H](C)OC2=O`, the IC50 in series [1] was 4.1 µM; in series [2], 40.9 µM. In addition, the Ratio IC50 in the series listed under Homo sapiens stood at 10.
On to `CCc1cc(C)c2c(c1O)C(=O)O[C@H](C)C2`, for which the IC50 in series [1] is 2.9 µM; in series [2] it was greater than 50 µM. In addition, the Ratio IC50 in the series listed under Homo sapiens is greater than 17.
For `Cc1cc(-c2ccncc2)c(O)c2c1C[C@@H](C)OC2=O`, the results for the IC50 in series [1] and in series [2] were 2.7 µM and greater than 50 µM, respectively. In the series listed under Homo sapiens, the Ratio IC50 is greater than 18.
The matching figures for `Cc1cc(CO)c(O)c2c1C[C@@H](C)OC2=O`: 19.2 µM, greater than 50 µM and greater than 2.6.
The matching figures for `Cc1cc(-c2cccc([N+](=O)[O-])c2)c(O)c2c1C[C@@H](C)OC2=O`: 3 µM, greater than 50 µM and greater than 17.
Turning to `Cc1cc(N(C)C)c(O)c2c1C[C@@H](C)OC2=O`, the IC50 is 13.6 µM in series [1] and greater than 50 µM in series [2]. In the series listed under Homo sapiens, the Ratio IC50 was greater than 3.6.
Consider `Cc1cc(C)c2c(c1O)C(=O)O[C@H](C)C2`, for which the IC50 was 3.8 µM in series [1] and greater than 50 µM in series [2]. Further, the Ratio IC50 in the series filed under Homo sapiens was greater than 13.
The matching figures for `COc1ccc(NCc2cc(C)c3c(c2O)C(=O)O[C@H](C)C3)cc1`: 4.4 µM, greater than 50 µM and greater than 11.
With `Cc1cc(C(=O)N2CCN(C)CC2)c(O)c2c1C[C@@H](C)OC2=O`, the IC50 in series [1] and in series [2] was greater than 50 µM throughout.
As to `Cc1cc(-c2ccc(N)cc2)c(O)c2c1C[C@@H](C)OC2=O`, the values for the IC50 in series [1] and in series [2] were 0.8 µM and 21 µM, respectively. Moreover, the Ratio IC50 in the series listed under Homo sapiens amounted to 26.
On to `Cc1cc(C(=O)N2CCOCC2)c(O)c2c1C[C@@H](C)OC2=O`, for which the IC50 in series [1] and in series [2] was greater than 50 µM throughout.
Take `Cc1cc(C#N)c(O)c2c1C[C@@H](C)OC2=O`: the IC50 in series [1] and in series [2] was greater than 50 µM each time.
For `Cc1cc(Br)c(O)c2c1C[C@@H](C)OC2=O`, the results for the IC50 in series [1] and in series [2] were 28.6 µM and greater than 50 µM, respectively. Moreover, the Ratio IC50 in the series listed under Homo sapiens is greater than 1.7.
For the molecule `C[C@@H]1Cc2c(CO)ccc(O)c2C(=O)O1`, the IC50 in series [1] and in series [2] was greater than 50 µM each time.
Take `Cc1ccc(-c2cc(C)c3c(c2O)C(=O)O[C@H](C)C3)cc1`: the IC50 in series [1] was 12.4 µM; in series [2], 4.1 µM. Also, the Ratio IC50 in the series listed under Homo sapiens was found to be 0.3.
Take `Cc1cc(C(=O)O)c(O)c2c1C[C@@H](C)OC2=O`: the IC50 in series [1] and in series [2] was greater than 50 µM in each case.
Regarding `C[C@@H]1Cc2cccc(O)c2C(=O)O1` [(-)-(R)-MELLEIN], the IC50 in series [1] was 6.2 µM; in series [2], 50 µM. Besides, in the series listed under Homo sapiens, the Ratio IC50 is 8.1.
For `CCN(CC)C(=O)c1cc(C)c2c(c1O)C(=O)O[C@H](C)C2`, the IC50 in series [1] and in series [2] was greater than 50 µM in each case.
On to `C[C@@H]1Cc2c(O)ccc(O)c2C(=O)O1`, for which the IC50 in series [1] is 17.1 µM; in series [2] it was greater than 50 µM. Besides, the Ratio IC50 in the series filed under Homo sapiens was greater than 2.9.
On to `Cc1cc(C(=O)N(C)C)c(O)c2c1C[C@@H](C)OC2=O`, for which the IC50 in series [1] and in series [2] was greater than 50 µM throughout.
Consider `C[C@@H]1Cc2c(C(=O)O)ccc(O)c2C(=O)O1`, for which the IC50 in series [1] and in series [2] was greater than 50 µM throughout.
For the molecule `Cc1cc(I)c(O)c2c1C[C@@H](C)OC2=O`, the IC50 was 15.9 µM in series [1] and greater than 50 µM in series [2]. Moreover, the Ratio IC50 in the series listed under Homo sapiens was greater than 3.1.
For `CC[C@@H]1Cc2c(C)cc(-c3ccc(N)cc3)c(O)c2C(=O)O1` the same measures were 0.3 µM, greater than 50 µM and greater than 167.
The matching figures for `Cc1cc([N+](=O)[O-])c(O)c2c1C[C@@H](C)OC2=O`: 15.8 µM, greater than 50 µM and greater than 3.1.
For the molecule `COc1cccc2c1C(=O)O[C@H](C)C2`, the IC50 in series [1] and in series [2] was greater than 50 µM in each case.
`Cc1cc(C(=O)NCCN2CCOCC2)c(O)c2c1C[C@@H](C)OC2=O`: the IC50 in series [1] and in series [2] was greater than 50 µM each time.
`Cc1cc(-c2ccc(O)cc2)c(O)c2c1C[C@@H](C)OC2=O`: the IC50 in series [1] was found to be 1.1 µM; in series [2], 38.9 µM. For the same molecule, the Ratio IC50 in the series filed under Homo sapiens worked out at 38.
The matching figures for `Cc1cc(Cl)c(O)c2c1C[C@@H](C)OC2=O`: 2.2 µM, greater than 50 µM and greater than 22.
Regarding `CCCc1cc(C)c2c(c1O)C(=O)O[C@H](C)C2`, the IC50 was 4.5 µM in series [1] and greater than 50 µM in series [2]. The Ratio IC50 in the series filed under Homo sapiens was greater than 11.
For `CCc1ccc(O)c2c1C[C@@H](C)OC2=O` the same measures were greater than 50 µM, 16.1 µM and less than 0.3.
For the molecule `Cc1cc(-c2cncnc2)c(O)c2c1C[C@@H](C)OC2=O`, the results for the IC50 in series [1] and in series [2] were 0.14 µM and greater than 50 µM, respectively. The “inhibition (INH)” value in series [3], in series [4] and in series [5] was “Active” throughout. The Ratio IC50 in the series filed under Homo sapiens was greater than 350.
`Cc1cc(N)c(O)c2c1C[C@@H](C)OC2=O`: the results for the IC50 in series [1] and in series [2] were 4.1 µM and greater than 50 µM, respectively. The Ratio IC50 in the series filed under Homo sapiens is greater than 11.
For `CCCCc1cc(C)c2c(c1O)C(=O)O[C@H](C)C2` the same measures were 18.3 µM, greater than 50 µM and greater than 2.7.
Take `Cc1cc2cccc(O)c2c(=O)o1`: the values for the IC50 in series [1] and in series [2] were 23.4 µM and greater than 50 µM, respectively. The Ratio IC50 in the series listed under Homo sapiens is greater than 2.
For the molecule `C=CC(=O)Nc1cc(C)c2c(c1O)C(=O)O[C@H](C)C2`, the half-inhibitory concentration (IC50) in series [1] and in series [2] was greater than 50 µM in each case.
Regarding `Cc1cc(-c2ccccc2)c(O)c2c1C[C@@H](C)OC2=O`, the IC50 in series [1] was found to be 10.5 µM; in series [2] it was 1 µM. The Ratio IC50 in the series listed under Homo sapiens is 0.1.
For `Cc1cc(-c2ccccn2)c(O)c2c1C[C@@H](C)OC2=O` the same measures were 2.1 µM, greater than 50 µM and greater than 24.
On to `Cc1cc(-c2cccc(N)c2)c(O)c2c1C[C@@H](C)OC2=O`, for which the IC50 in series [1] was 0.2 µM; in series [2], greater than 50 µM. Also, the “inhibition (INH)” value in series [3], in series [4] and in series [5] was “Active” throughout. For the same molecule, in the series filed under Homo sapiens, the Ratio IC50 was greater than 250.
As to `Cc1cc(-c2cccnc2)c(O)c2c1C[C@@H](C)OC2=O`, the IC50 was 0.2 µM in series [1] and greater than 50 µM in series [2]. Further, the “inhibition (INH)” value in series [3], in series [4] and in series [5] was “Active” in each case. Moreover, the Ratio IC50 in the series filed under Homo sapiens was greater than 250.
On to `Cc1ccc(O)c2c1CCOC2=O`, for which the IC50 in series [1] was found to be 3.2 µM; in series [2], 5.5 µM. The Ratio IC50 in the series listed under Homo sapiens turned out to be 1.7.
`COc1ccc(C)c2c1C(=O)O[C@@H](C)C2`: the IC50 in series [1] and in series [2] was greater than 50 µM throughout.
For the molecule `CC[C@@H]1Cc2c(C)ccc(O)c2C(=O)O1`, the IC50 is 8 µM in series [1] and greater than 50 µM in series [2]. In addition, the Ratio IC50 in the series listed under Homo sapiens is greater than 6.2.
For the molecule `Cc1ccc(O)c2c1CC(C)(C)OC2=O`, the half-inhibitory concentration (IC50) in series [1] and in series [2] was greater than 50 µM in each case.
In the case of `Cc1cc(-c2ccc(C(F)(F)F)cc2)c(O)c2c1C[C@@H](C)OC2=O`, the IC50 in series [1] came to 13.7 µM; in series [2], 1 µM. Moreover, the Ratio IC50 in the series filed under Homo sapiens was 0.1.
